One test has as its system Enterococcus faecium X66. The experiment in a line: MIC, standard agar-dilution assay. The test is classed as cell-based. As for the experimental part:
(§1) The formula I compounds have in vitro and in vivo activity against Gram-positive pathogenic bacteria. The MIC's were determined using a standard agar-dilution assays.
^b Formerly Streptococcus faecium X66

The next test deals with Streptococcus pyogenes. As to the kind of experiment: In vivo activity, experimentally infected mice (ED50). The note with it: Streptococcus pyogenes infection; doses administered subcutaneously to mice 1 and 4 hours postinfection.
For test [1], the system named is Klebsiella pneumoniae KAE. The experiment in a line: MIC, standard agar-dilution assay. The test is classed as cell-based. As for the experimental part: as §1
The subject of test [2] is Staphylococcus aureus NRRL X1.1. As to the kind of experiment: MIC, standard agar-dilution assay. The test is classed as cell-based. As for the experimental part:
as §1

The next test has as its system Escherichia coli EC14. The experiment in a line: MIC, standard agar-dilution assay. The test is classed as cell-based. As for the experimental part:
as §1

For test [3], the system named is Streptococcus pyogenes C203. As to the kind of experiment: MIC, standard agar-dilution assay. The test is classed as cell-based. As for the experimental part:
as §1

Test [4] deals with Staphylococcus aureus V41. The experiment in a line: MIC, standard agar-dilution assay. The test is classed as cell-based. As for the experimental part:
as §1

For test [5], the system named is Staphylococcus epidermidis 222. The experiment in a line: MIC, standard agar-dilution assay. It is filed as cell-based. As for the experimental part: as §1
Test [6] deals with Staphylococcus epidermidis EPI270. The experiment in a line: MIC, standard agar-dilution assay. It is filed as cell-based. As for the experimental part: as §1
The test system of a further test is Escherichia coli N10. The experiment in a line: MIC, standard agar-dilution assay. The test is classed as cell-based. As for the experimental part: as §1
For test [7], the system named is Klebsiella pneumoniae X26. The experiment in a line: MIC, standard agar-dilution assay. It is filed as cell-based. As for the experimental part: as §1
Test [8] concerns Haemophilus influenzae 76. As to the kind of experiment: MIC, standard agar-dilution assay. It is filed as cell-based. As for the experimental part: as §1
Test [9] relates to Klebsiella pneumoniae X68. The experiment in a line: MIC, standard agar-dilution assay. It is filed as cell-based. As for the experimental part:
as §1

The test system of test [10] is Haemophilus influenzae C.L. The experiment in a line: MIC, standard agar-dilution assay. It is filed as cell-based. As for the experimental part:
as §1

The next test has as its system Escherichia coli TEM. As to the kind of experiment: MIC, standard agar-dilution assay. It is filed as cell-based. As for the experimental part: as §1
Test [11] has as its system Staphylococcus aureus X400. As to the kind of experiment: MIC, standard agar-dilution assay. The test is classed as cell-based. As for the experimental part: as §1
Test [12] concerns Staphylococcus aureus S13E. The test is classed as cell-based. As for the experimental part:
as §1

The test system of test [13] is Streptococcus pneumoniae Park 1. The test is classed as cell-based. As for the experimental part: as §1
Test [14] concerns Enterococcus faecalis 2041. The experiment in a line: MIC, standard agar-dilution assay. It is filed as cell-based. As for the experimental part:
as §1
^c Formerly Streptococcus faecalis 2041

For a further test, the system named is Streptococcus pneumoniae. The experiment in a line: In vivo activity, experimentally infected mice (ED50). Particulars: Streptococcus pneumoniae infection; doses administered subcutaneously to mice 1 and 4 hours postinfection.
In a further test the test system is Staphylococcus aureus. The description is as above. Particulars: Staphylococcus aureus infection; doses administered subcutaneously to mice 1 and 4 hours postinfection.

Values after ≈ are worked out from the molar mass of the structure shown.

Regarding `CNC(CC(C)C)C(=O)NC1C(=O)NC(CC(N)=O)C(=O)NC2C(=O)NC3C(=O)NC(C(=O)NC(C(=O)O)c4cc(O)cc(O)c4-c4cc3ccc4O)C(OC3CC(C)(N)C(O)C(C)O3)c3ccc(c(Cl)c3)Oc3cc2cc(c3OC2OC(CO)C(O)C(O)C2OC2CC(C)(NCc3ccccc3Cl)C(O)C(C)O2)Oc2ccc(cc2Cl)C1O` (stereo not drawn) [Compound 62], the MIC result in the test with Enterococcus faecium X66 is “.25 µg/mL”; in test [1] it was above 128 µg/mL; in test [2] it was “.5 µg/mL”; with Escherichia coli EC14, above 128 µg/mL; in [3], “.125 µg/mL”; in test [4], “.5 µg/mL”. For the same molecule, the MIC result is “.5 µg/mL” in test [5]; 1 µg/mL (≈ 0.582 µM) in [6]; above 128 µg/mL in the test with Escherichia coli N10; above 128 µg/mL in [7]; above 128 µg/mL in test [8]; above 128 µg/mL in test [9]. The MIC in test [10] was above 128 µg/mL; against Escherichia coli TEM, above 128 µg/mL; in test [11] it was 1 µg/mL (≈ 0.582 µM); in [12] it was 1 µg/mL (≈ 0.582 µM); in test [13], “.125 µg/mL”; in test [14] it was “.5 µg/mL”. The ED50 with Streptococcus pyogenes was determined as 0.20 mg/kg/2; in the test on Streptococcus pneumoniae, 0.17 mg/kg/2; with Staphylococcus aureus, 0.77 mg/kg/2.

For `CCCCCN(C)[C@H](CC(C)C)C(=O)N[C@H]1C(=O)N[C@@H](CC(N)=O)C(=O)N[C@H]2C(=O)N[C@H]3C(=O)N[C@H](C(=O)N[C@H](C(=O)O)c4cc(O)cc(O)c4-c4cc3ccc4O)[C@H](O[C@H]3C[C@](C)(N)[C@@H](O)[C@H](C)O3)c3ccc(cc3)Oc3cc2cc(c3O[C@@H]2O[C@H](CO)[C@@H](O)[C@H](O)[C@H]2O[C@H]2C[C@](C)(N)[C@@H](O)[C@H](C)O2)Oc2ccc(cc2Cl)[C@H]1O` [Compound 6], the MIC is 1 µg/mL (≈ 0.614 µM) with Enterococcus faecium X66; above 128 µg/mL in test [1]; “.25 µg/mL” in test [2]; above 128 µg/mL against Escherichia coli EC14; “.125 µg/mL” in test [3]; “.25 µg/mL” in [4]. Moreover, the MIC entry in [5] is “.5 µg/mL”; in test [6], “.5 µg/mL”; with Escherichia coli N10 it was above 128 µg/mL; in test [7], above 128 µg/mL; in test [8], above 128 µg/mL; in test [9], above 128 µg/mL. Moreover, the MIC in test [10] is above 128 µg/mL; in the test with Escherichia coli TEM, above 128 µg/mL; in [11], “.25 µg/mL”; in [12] it was “.25 µg/mL”; in test [13], “.125 µg/mL”; in test [14] it was 1 µg/mL (≈ 0.614 µM). Besides, the ED50 in the test with Streptococcus pyogenes is reported as 0.67 mg/kg/2; with Streptococcus pneumoniae it was 0.94 mg/kg/2; in the test with Staphylococcus aureus, 0.88 mg/kg/2.

With `CCCCCCC(=O)N[C@@]1(C)C[C@H](O[C@H]2[C@H](Oc3c4cc5cc3Oc3ccc(cc3Cl)[C@@H](O)[C@@H](NC(=O)[C@@H](CC(C)C)NC)C(=O)N[C@@H](CC(N)=O)C(=O)N[C@H]5C(=O)N[C@H]3C(=O)N[C@H](C(=O)N[C@H](C(=O)O)c5cc(O)cc(O)c5-c5cc3ccc5O)[C@H](O[C@H]3C[C@](C)(N)[C@@H](O)[C@H](C)O3)c3ccc(cc3)O4)O[C@H](CO)[C@@H](O)[C@@H]2O)O[C@@H](C)[C@@H]1O` [Compound 27], the MIC is 2 µg/mL (≈ 1.2 µM) with Enterococcus faecium X66; above 128 µg/mL in [1]; 1 µg/mL (≈ 0.599 µM) in [2]; above 128 µg/mL in the test with Escherichia coli EC14; “.5 µg/mL” in test [3]; 1 µg/mL (≈ 0.599 µM) in [4]. The MIC in test [5] is 2 µg/mL (≈ 1.2 µM); in test [6] it was 2 µg/mL (≈ 1.2 µM); in the test with Escherichia coli N10 it was above 128 µg/mL; in test [7], above 128 µg/mL; in test [8] it was above 128 µg/mL; in [9], above 128 µg/mL. For the same molecule, the MIC in [10] is above 128 µg/mL; with Escherichia coli TEM it was above 128 µg/mL; in [11], 1 µg/mL (≈ 0.599 µM); in [12] it was 2 µg/mL (≈ 1.2 µM); in test [13], “.25 µg/mL”; in test [14], 2 µg/mL (≈ 1.2 µM). In addition, the ED50 in the test on Streptococcus pyogenes is on record as 0.5 mg/kg/2; in the test with Streptococcus pneumoniae, 0.71 mg/kg/2; in the test with Staphylococcus aureus it was above 1.0 mg/kg/2.

For the molecule `CCN(CC)c1ccc(CN[C@@]2(C)C[C@H](O[C@H]3[C@H](Oc4c5cc6cc4Oc4ccc(cc4Cl)[C@@H](O)[C@@H](NC(=O)[C@@H](CC(C)C)NC)C(=O)N[C@@H](CC(N)=O)C(=O)N[C@H]6C(=O)N[C@H]4C(=O)N[C@H](C(=O)N[C@H](C(=O)O)c6cc(O)cc(O)c6-c6cc4ccc6O)[C@H](O[C@H]4C[C@](C)(N)[C@@H](O)[C@H](C)O4)c4ccc(cc4)O5)O[C@H](CO)[C@@H](O)[C@@H]3O)O[C@@H](C)[C@@H]2O)cc1` [Compound 17], the MIC against Enterococcus faecium X66 is 1 µg/mL (≈ 0.582 µM); in [1], above 128 µg/mL; in test [2] it was “.5 µg/mL”; against Escherichia coli EC14, above 128 µg/mL; in test [3], “.25 µg/mL”; in test [4] it was “.5 µg/mL”. The MIC result in test [5] is “.5 µg/mL”; in [6] it was 1 µg/mL (≈ 0.582 µM); with Escherichia coli N10, above 128 µg/mL; in [7], above 128 µg/mL; in [8], above 128 µg/mL; in test [9], above 128 µg/mL. The MIC in test [10] was above 128 µg/mL; against Escherichia coli TEM, above 128 µg/mL; in [11] it was “.5 µg/mL”; in [12], “.5 µg/mL”; in [13], “.25 µg/mL”; in test [14], 1 µg/mL (≈ 0.582 µM). In addition, the ED50 in the test with Streptococcus pyogenes turned out to be 0.23 mg/kg/2; in the test on Streptococcus pneumoniae it was 0.33 mg/kg/2; in the test with Staphylococcus aureus, 0.78 mg/kg/2.

Turning to `CCCCCN[C@@]1(C)C[C@H](O[C@H]2[C@H](Oc3c4cc5cc3Oc3ccc(cc3Cl)[C@@H](O[C@H]3C[C@](C)(N)[C@@H](O)[C@H](C)O3)[C@@H]3NC(=O)[C@H](NC(=O)[C@@H]5NC(=O)[C@H](CC(N)=O)NC(=O)[C@H](NC(=O)[C@@H](CC(C)C)NC)[C@H](O)c5ccc(c(Cl)c5)O4)c4ccc(O)c(c4)-c4c(O)cc(O)cc4[C@@H](C(=O)O)NC3=O)O[C@H](CO)[C@@H](O)[C@@H]2O)O[C@@H](C)[C@@H]1O` [Compound 34], the MIC entry with Enterococcus faecium X66 is “.5 µg/mL”; in test [1], above 128 µg/mL; in test [2] it was “.5 µg/mL”; against Escherichia coli EC14, above 128 µg/mL; in [3], “.5 µg/mL”; in [4], “.5 µg/mL”. Further, the MIC entry is “.5 µg/mL” in test [5]; 2 µg/mL (≈ 1.2 µM) in test [6]; above 128 µg/mL in the test on Escherichia coli N10; above 128 µg/mL in test [7]; above 128 µg/mL in test [8]; above 128 µg/mL in test [9]. Besides, the MIC was above 128 µg/mL in test [10]; above 128 µg/mL against Escherichia coli TEM; 1 µg/mL (≈ 0.601 µM) in test [11]; “.5 µg/mL” in [12]; “.5 µg/mL” in test [13]; 1 µg/mL (≈ 0.601 µM) in [14]. Also, the ED50 is recorded as 0.44 mg/kg/2 with Streptococcus pyogenes, 0.44 mg/kg/2 in the test with Streptococcus pneumoniae and 0.77 mg/kg/2 in the test on Staphylococcus aureus.

As for `CNC(CC(C)C)C(=O)NC1C(=O)NC(CC(N)=O)C(=O)NC2C(=O)NC3C(=O)NC(C(=O)NC(C(=O)O)c4cc(O)cc(O)c4-c4cc3ccc4O)C(OC3CC(C)(N)C(O)C(C)O3)c3ccc(c(Cl)c3)Oc3cc2cc(c3OC2OC(CO)C(O)C(O)C2OC2CC(C)(NCc3cccc(Cl)c3)C(O)C(C)O2)Oc2ccc(cc2Cl)C1O` (stereo not drawn) [Compound 64], the MIC entry was “.25 µg/mL” against Enterococcus faecium X66; above 128 µg/mL in [1]; “.25 µg/mL” in test [2]; above 128 µg/mL against Escherichia coli EC14; “.06 µg/mL” in test [3]; “.25 µg/mL” in test [4]. For the same molecule, the MIC result is “.5 µg/mL” in [5]; “.25 µg/mL” in [6]; above 128 µg/mL in the test with Escherichia coli N10; above 128 µg/mL in test [7]; above 128 µg/mL in [8]; above 128 µg/mL in test [9]. The MIC was above 128 µg/mL in [10]; above 128 µg/mL in the test on Escherichia coli TEM; “.5 µg/mL” in [11]; “.5 µg/mL” in [12]; “.25 µg/mL” in test [13]; “.25 µg/mL” in test [14]. Besides, the ED50 in the test with Streptococcus pyogenes was 0.94 mg/kg/2; in the test with Streptococcus pneumoniae, 0.10 mg/kg/2; in the test with Staphylococcus aureus, 0.55 mg/kg/2.

Source of the values: patent publication US5591714A, “Derivatives of A82846” (priority 1994, dated 1997).
